From patent US20090325952A1, “PYRAZOLO[3,4-B]PYRIDINE COMPOUNDS, AND THEIR USE AS PDE4 INHIBITORS” (Glaxo Group Limited, priority 2006, published 2009) come the findings set out here.

Assay [1] concerns the target T1, PDE4B (human recombinant) (Homo sapiens, UniProt Q07343).
T1 construct: made in house; host or cells: Saccharomyces cerevisiae strain GL62 (PDE-deficient yeast)
Briefly: Inhibition of PDE4B activity (FP and/or SPA assay). The class given is biochemical. As to conditions: generally FP assay; one reading or average of n readings; read-out: PDE4B pIC50 (generally in FP assay) (±about 0.5) (converted). The text has this:
Human recombinant PDE4B, in particular the 2B splice variant thereof (HSPDE4B2B), is disclosed in WO 94/20079 and also M. M. McLaughlin et al., “A low Km, rolipram-sensitive, cAMP-specific phosphodiesterase from human brain: cloning and expression of cDNA, biochemical characterisation of recombinant protein, and tissue distribution of mRNA”, J. Biol. Chem., 1993, 268, 6470-6476. For example, in Example 1 of WO 94/20079, human recombinant PDE4B is described as being expressed in the PDE-deficient yeast Saccharomyces cerevisiae strain GL62, e.g. after induction by addition of 150 uM CuSO4, and 100,000×g supernatant fractions of yeast cell lysates are described for use in the harvesting of PDE4B enzyme.
The ability of compounds to inhibit catalytic activity at PDE4B or 4D (human recombinant), PDE3 (from bovine aorta), PDE5 (human recombinant) or PDE6 (from bovine retina) can optionally be determined by Scintillation Proximity Assay (SPA) in a 96-well format.
Test compounds (as a solution in DMSO, suitably about 2 microlitre (ul) volume of DMSO solution) are preincubated at ambient temperature (room temperature, e.g. 19-23° C.) in Wallac Isoplates (code 1450-514) with PDE enzyme in 50 mM Tris-HCl buffer pH 7.5, 8.3 mM MgCl2, 1.7 mM EGTA, 0.05% (w/v) bovine serum albumin for 10-30 minutes (usually 30 minutes). The enzyme concentration is adjusted so that no more than 20% hydrolysis of the substrate defined below occurs in control wells without compound, during the incubation. For the PDE3, PDE4B and PDE4D assays, [5′,8-^3H]Adenosine 3′,5′-cyclic phosphate (Amersham Pharmacia Biotech, code TRK.559; or Amersham Biosciences UK Ltd, Pollards Wood, Chalfont St Giles, Buckinghamshire HP8 4SP, UK) is added to give 0.05uCi per well and about 10 nM final concentration. For the PDE5 and PDE6 assays, [8^−3H]Guanosine 3′,5′-cyclic phosphate (Amersham Pharmacia Biotech, code TRK.392) is added to give 0.05uCi per well and about 36 nM final concentration. Plates containing assay mixture, suitably approx. 100 ul volume of assay mixture, are mixed on an orbital shaker for 5 minutes and incubated at ambient temperature for 1 hour. Phosphodiesterase SPA beads (Amersham Pharmacia Biotech, code RPNQ 0150) are added (about 1 mg per well) to terminate the assay. Plates are sealed and shaken and allowed to stand at ambient temperature for 35 minutes to 1 hour (suitably 35 minutes) to allow the beads to settle. Bound radioactive product is measured using a WALLAC TRILUX 1450 Microbeta scintillation counter. For inhibition curves, 10 concentrations (e.g. 1.5 nM-30 uM) of each compound are assayed. Curves are analysed using ActivityBase and XLfit (ID Business Solutions Limited, 2 Ocean Court, Surrey Research Park, Guildford, Surrey GU2 7QB, United Kingdom) Results are expressed as pIC50 values.
The ability of compounds to inhibit catalytic activity at PDE4B (human recombinant) or PDE4D (human recombinant) can optionally be determined by IMAP Fluorescence Polarisation (FP) assay (IMAP Explorer kit, available from Molecular Devices Corporation, Sunnydale, Calif., USA; Molecular Devices code: R8062) in 384-well format.
The IMAP FP assay is able to measure PDE activity in an homogenous, non-radioactive assay format. The FP assay uses the ability of immobilised trivalent metal cations, coated onto nanoparticles (tiny beads), to bind the phosphate group of Fl-AMP that is produced on the hydrolysis of fluorescein-labelled (Fl) cyclic adenosine mono-phosphate (Fl-cAMP) to the non-cyclic Fl-AMP form. […] Binding of Fl-AMP product to the beads (coated with the immobilised trivalent cations) slows the rotation of the bound Fl-AMP and leads to an increase in the fluorescence polarisation ratio of parallel to perpendicular light. Inhibition of the PDE reduces/inhibits this signal increase. […]

In assay [2] the test system is LPS-induced pulmonary neutrophilia in rats. Briefly: In Vivo Assay 1: LPS induced pulmonary neutrophilia in rats, intratracheal administration. The arrangement: species or system rat. The note with it: preliminary tests. The source says:
This assay is an animal model of acute inflammation in the lung—specifically neutrophilia induced by lipopolysaccharide (LPS)—and allows the study of putative inhibition of such neutrophilia (anti-inflammatory effect) by an intratracheally (i.t.) administered PDE4 inhibitor (“drug”). The PDE4 inhibitors are suitably in dry powder, aqueous solution or aqueous suspension form. I.t. administration is one model of inhaled administration, allowing topical delivery to the lung.
Animals: Male CD (Sprague Dawley Derived) rats supplied by Charles River, United Kingdom are housed in groups of 5 rats per cage, acclimatised after delivery for at least 7 days with bedding/nesting material regularly changed, fed on SDS diet R1 pelleted food given ad lib, and supplied with daily-changed pasteurised animal grade drinking water.
Device for dry powder administration: For these studies, a Penn Century DP-4 dry powder intratracheal (i.t.) delivery device (insufflator) is used for administration of a dry powder blend of vehicle (inhalation grade lactose) and the PDE4 inhibitor compound or salt of the invention (“drug”). Each device is numbered and the sample loading chamber is unscrewed from the main device and weighed. The i.t. delivery needle is also weighed. The drug+lactose blend or inhalation grade lactose (vehicle control) is then added to the sample chamber and this is then re-weighed. The sample chamber is fitted back on to the main device to prevent any drug being lost. This procedure is repeated for all of the Penn century devices to be used in the study (one separate device for each animal). After dosing to the animals, the sample chambers and needles are re-weighed in order to determine the amount of sample that was expelled from the device.
Device for aqueous solution administration: A blunt dosing needle, whose forward end is slightly angled to the needle axis, is used, with a flexible plastic portex canula inserted into the needle. The portex cannula is inserted into the lumen of the blunt stainless steel dosing needle and this is carefully inserted into the back of the animal's throat and into the trachea via the larynx. A known volume (200 microlitres) of the vehicle (0.2% Tween 80™ in saline) or of the solution (or suspension) drug composition is administered into the trachea using a plastic syringe that is attached to the portex cannula and dosing needle. A new internal cannula is used for each different drug group. After dosing, the needle is removed from the trachea and the animals are removed from the table and continually observed until they recover from the effects of anaesthesia. The animals are then returned to the holding cages and given free access to food and water, and are observed and any unusual behavioural changes noted. (Aqueous suspensions can be handled generally similarly.)
Drugs and Materials: Lipopolysaccharide (LPS) (Serotype:0127:B8, e.g. from Sigma, UK; e.g. L3129 prepared by phenol extraction) is dissolved in phosphate-buffered saline (PBS).
For dry powder, aqueous solution or aqueous suspension administration, PDE4 inhibitors are preferably used in size-reduced (e.g. micronised) form, for example according to the Micronisation Example(s) disclosed herein.
For dry powder administration of the drug, the PDE4 inhibitor compound or salt of the invention (drug) is administered as a dry powder blended with inhalation-grade (respiratory-grade) lactose, i.e. as a dry powder composition. The target quantity of dry powder composition administered i.t. to each animal is 2 mg. This remains constant throughout the studies. To achieve different doses, blends of the drug dry powder and lactose, containing different concentrations of the PDE4 inhibitor compound or salt of the invention (drug), are prepared. […]

Counter-ions that a name gives are not always drawn.

T1 sequence (Q07343 1-564 isoform Q07343-2): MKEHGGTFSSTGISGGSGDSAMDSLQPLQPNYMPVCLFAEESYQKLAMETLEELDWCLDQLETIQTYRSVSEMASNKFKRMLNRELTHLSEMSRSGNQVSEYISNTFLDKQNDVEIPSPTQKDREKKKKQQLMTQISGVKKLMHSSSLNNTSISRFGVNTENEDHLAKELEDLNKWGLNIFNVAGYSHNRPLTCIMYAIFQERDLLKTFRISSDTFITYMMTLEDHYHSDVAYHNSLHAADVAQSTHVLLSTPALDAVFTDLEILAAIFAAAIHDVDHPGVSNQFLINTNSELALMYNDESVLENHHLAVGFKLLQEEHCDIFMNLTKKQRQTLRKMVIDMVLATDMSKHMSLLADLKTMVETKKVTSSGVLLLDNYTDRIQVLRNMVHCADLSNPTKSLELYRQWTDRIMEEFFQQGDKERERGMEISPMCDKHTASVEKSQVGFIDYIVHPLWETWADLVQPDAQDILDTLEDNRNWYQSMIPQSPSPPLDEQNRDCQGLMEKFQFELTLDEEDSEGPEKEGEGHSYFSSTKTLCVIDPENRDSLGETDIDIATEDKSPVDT

As for `CCc1nc2c(cnn2CC)c(NC2CCOCC2)c1CNC(=O)c1ccc(CCCCOCCCCN2CCOCC2)cc1` [Example 20, formate salt of N-{[1,6-diethyl-4-(tetrahydro-2H-pyran-4-ylamino)-1H-pyrazolo[3,4-b]pyridin-5-yl]methyl}-4-(4-{[4-(4-morpholinyl)butyl]oxy}butyl)benzamide], the IC50 in assay [1] was ~0.1 nM.

With `CCc1nc2c(cnn2CC)c(NC2CCOCC2)c1CNC(=O)c1ccc(CCCCOCCCCN2CCCC2)cc1` [Example 21, formate salt of N-{[1,6-diethyl-4-(tetrahydro-2H-pyran-4-ylamino)-1H-pyrazolo[3,4-b]pyridin-5-yl]methyl}-4-(4-{[4-(1-pyrrolidinyl)butyl]oxy}butyl)benzamide], the IC50 in assay [1] is ~0.0631 nM.

In the case of `CCc1nc2c(cnn2CC)c(NC2CCOCC2)c1CNC(=O)c1ccc(NC(=O)CCCCCCCN(C)CCO)cc1` [N-{[1,6-diethyl-4-(tetrahydro-2H-pyran-4-ylamino)-1H-pyrazolo[3,4-b]pyridin-5-yl]methyl}-4-({8-[(2-hydroxyethyl)(methyl)amino]octanoyl}amino)benzamide], the results for the “duration of action in i.t. rat LPS-induced neutrophilia model” value in assay [2] (after i.t. administration to the rat as a dry powder) and in assay [2] (after i.t. administration to the rat as an aqueous solution) were 4 h and ≥ 2 h, respectively.

Take `CCc1nc2c(cnn2CC)c(NC2CCOCC2)c1CNC(=O)c1ccc(NC(=O)CCCCCCCN2CCC[C@@H]2COC)cc1` [Example 11, N-{[1,6-diethyl-4-(tetrahydro-2H-pyran-4-ylamino)-1H-pyrazolo[3,4-b]pyridin-5-yl]methyl}-4-[(8-{(2R)-2-[(methyloxy)methyl]-1-pyrrolidinyl}octanoyl)amino]benzamide trifluoroacetate]: the IC50 in assay [1] was ~0.0501 nM.

For the compound `CCc1nc2c(cnn2CC)c(NC2CCOCC2)c1CNC(=O)c1ccc(NC(=O)CCCCCCCCCCN(C)CCO)cc1` [Example 34, N-{[1,6-diethyl-4-(tetrahydro-2H-pyran-4-ylamino)-1H-pyrazolo[3,4-b]pyridin-5-yl]methyl}-4-({11-[(2-hydroxyethyl)(methyl)amino]undecanoyl}amino)benzamide], in assay [1], the IC50 was ~1 nM.

As for `CCc1nc2c(cnn2CC)c(NC2CCOCC2)c1CNC(=O)c1ccc(NC(=O)CCCCCCCN2CCOCC2)cc1` [Example 17, formate salt of N-{[1,6-diethyl-4-(tetrahydro-2H-pyran-4-ylamino)-1H-pyrazolo[3,4-b]pyridin-5-yl]methyl}-4-{[8-(4-morpholinyl)octanoyl]amino}benzamide], in assay [1], the IC50 is ~0.158 nM.

For `CCc1nc2c(cnn2CC)c(NC2CCOCC2)c1CNC(=O)c1ccc(NC(=O)CCCCCCCN(C)CCO)cc1` [Example 1C, N-{[1,6-diethyl-4-(tetrahydro-2H-pyran-4-ylamino)-1H-pyrazolo[3,4-b]pyridin-5-yl]methyl}-4-({8-[(2-hydroxyethyl)(methyl)amino]octanoyl}amino)benzamide], the IC50 in assay [1] is ~0.0501 nM.

As for `CCc1nc2c(cnn2CC)c(NC2CCOCC2)c1CNC(=O)c1ccc(NC(=O)CCCCCN(C)CCO)cc1` [Example 31, N-{[1,6-diethyl-4-(tetrahydro-2H-pyran-4-ylamino)-1H-pyrazolo[3,4-b]pyridin-5-yl]methyl}-4-({6-[(2-hydroxyethyl)(methyl)amino]hexanoyl}amino)benzamide], the IC50 in assay [1] is ~0.0794 nM.

As to `CCc1nc2c(cnn2CC)c(NC2CCOCC2)c1CNC(=O)c1ccc(NC(=O)CCCCCCCN2CCC[C@H]2COC)cc1` [Example 12, N-{[1,6-diethyl-4-(tetrahydro-2H-pyran-4-ylamino)-1H-pyrazolo[3,4-b]pyridin-5-yl]methyl}-4-[(8-{(2S)-2-[(methyloxy)methyl]-1-pyrrolidinyl}octanoyl)amino]benzamide trifluoroacetate], the IC50 in assay [1] is ~0.0316 nM.
